IC50 data for 31 compounds are collected here from patent publication US20100105651A1, “ANTAGONISTS OF SNS SODIUM CHANNELS” (priority 2005, published 2010).

T1 sequence (Q9Y5Y9 whole entry): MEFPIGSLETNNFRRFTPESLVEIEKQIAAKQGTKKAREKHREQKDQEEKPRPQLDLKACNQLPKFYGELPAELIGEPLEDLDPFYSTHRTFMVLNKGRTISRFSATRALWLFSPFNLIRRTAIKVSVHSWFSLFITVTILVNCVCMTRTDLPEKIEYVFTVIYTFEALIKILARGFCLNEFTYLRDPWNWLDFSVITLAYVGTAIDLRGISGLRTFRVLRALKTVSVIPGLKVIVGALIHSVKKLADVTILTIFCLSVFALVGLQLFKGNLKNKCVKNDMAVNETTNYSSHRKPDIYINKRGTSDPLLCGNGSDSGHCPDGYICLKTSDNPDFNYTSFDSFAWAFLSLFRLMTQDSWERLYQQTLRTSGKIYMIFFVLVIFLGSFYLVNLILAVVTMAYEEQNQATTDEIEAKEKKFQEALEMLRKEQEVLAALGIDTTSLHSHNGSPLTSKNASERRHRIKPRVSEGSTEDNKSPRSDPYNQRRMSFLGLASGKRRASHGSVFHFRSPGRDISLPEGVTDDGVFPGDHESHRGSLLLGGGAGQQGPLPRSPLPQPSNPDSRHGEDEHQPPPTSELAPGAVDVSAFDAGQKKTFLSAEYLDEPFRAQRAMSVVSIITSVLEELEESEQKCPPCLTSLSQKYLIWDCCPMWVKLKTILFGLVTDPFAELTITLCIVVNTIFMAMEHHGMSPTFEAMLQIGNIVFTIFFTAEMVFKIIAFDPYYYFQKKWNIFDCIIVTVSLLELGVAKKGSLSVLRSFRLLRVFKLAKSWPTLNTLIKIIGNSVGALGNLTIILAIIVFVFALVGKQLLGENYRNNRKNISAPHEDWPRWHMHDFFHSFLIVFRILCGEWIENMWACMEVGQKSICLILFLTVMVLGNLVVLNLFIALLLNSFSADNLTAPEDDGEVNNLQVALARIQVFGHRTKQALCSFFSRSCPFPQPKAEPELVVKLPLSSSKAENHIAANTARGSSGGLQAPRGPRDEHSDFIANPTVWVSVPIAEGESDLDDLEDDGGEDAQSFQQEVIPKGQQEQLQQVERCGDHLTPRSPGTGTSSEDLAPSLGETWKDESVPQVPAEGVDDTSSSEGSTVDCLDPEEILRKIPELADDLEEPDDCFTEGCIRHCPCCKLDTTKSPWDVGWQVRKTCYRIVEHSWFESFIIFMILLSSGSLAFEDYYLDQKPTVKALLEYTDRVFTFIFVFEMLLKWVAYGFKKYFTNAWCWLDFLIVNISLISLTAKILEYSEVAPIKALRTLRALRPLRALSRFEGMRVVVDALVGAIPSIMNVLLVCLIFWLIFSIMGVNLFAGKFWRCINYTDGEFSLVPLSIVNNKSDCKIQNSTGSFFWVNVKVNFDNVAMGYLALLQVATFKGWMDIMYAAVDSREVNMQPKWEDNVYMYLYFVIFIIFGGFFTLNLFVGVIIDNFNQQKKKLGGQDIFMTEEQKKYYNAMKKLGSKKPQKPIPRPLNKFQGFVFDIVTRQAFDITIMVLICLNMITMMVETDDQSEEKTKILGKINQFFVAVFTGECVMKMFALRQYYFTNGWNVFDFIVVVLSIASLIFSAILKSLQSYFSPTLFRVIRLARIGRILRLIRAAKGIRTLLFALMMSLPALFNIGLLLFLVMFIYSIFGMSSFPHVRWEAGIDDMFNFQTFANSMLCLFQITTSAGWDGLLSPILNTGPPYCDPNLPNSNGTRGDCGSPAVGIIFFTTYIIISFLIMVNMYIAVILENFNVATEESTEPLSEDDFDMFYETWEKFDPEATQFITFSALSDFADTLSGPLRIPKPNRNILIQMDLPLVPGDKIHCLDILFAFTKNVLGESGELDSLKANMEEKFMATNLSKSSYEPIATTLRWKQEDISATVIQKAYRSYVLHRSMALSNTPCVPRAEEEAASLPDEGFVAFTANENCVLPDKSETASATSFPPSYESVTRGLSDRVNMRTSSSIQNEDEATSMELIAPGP

This assay addresses T1, human NaV1.8 (hNaV1.8) ion channel (Homo sapiens, UniProt Q9Y5Y9).
T1 construct: expressed in transfected cells
Kind of assay: Inhibition of Human NaV1.8 stably expressed in SH-SY-5Y cells (membrane potential dye fluorescence assay). Type of assay: cell-based. The settings on record: SH-SY-5Y cells stably expressing hNaV1.8; FLIPR membrane potential dye; 10 μM pyrethroid, 250 nM TTX; test range 100 μM-0.05 μM; read-out: hNav1.8 IC50. On the procedure: Inhibition of Human NaV1.8 stably expressed in SH-SY-5Y cells
A SH-SY-5Y neuroblastoma cell line stably expressing the human NaV1.8 (hNaV1.8) ion channel was constructed. This cell line has been used to develop a medium to high throughput assay for determining the ability of test compounds to inhibit membrane depolarisation mediated via the hNaV1.8 channel.
SH-SY-5Y hNaV1.8 are grown in adherent monolayer culture using 50:50 Ham's F-12/EMEM tissue culture medium supplemented with 15% (v/v) foetal bovine serum; 2 mM L-glutamine, 1% NEAA and 600 μg·ml^−1 Geneticin sulphate. Cells are removed from the tissue culture flask using trypsin/EDTA and re-plated into black walled, clear bottom 96-well assay plates at 50,000 cells·well^−1 24 hours prior to assay.
On the day of assay the cell assay plates are washed to remove cell culture medium using a sodium free assay buffer (145 mM tetramethyl ammonium chloride; 2 mM calcium chloride; 0.8 mM magnesium chloride hexahydrate; 10 mM HEPES; 10 mM glucose; 5 mM potassium chloride, pH 7.4). Fluorescent membrane potential dye solution (FLIPR™ membrane potential dye, Molecular Devices Corporation), containing 10 μM of a pyrethroid to prevent channel inactivation and 250 nM tetrodotoxin (TTX) to reduce interference from TTX-sensitive sodium channels present in the cell line. Test compound, initially dissolved in dimethyl sulfoxide but further diluted in sodium free buffer, is added to achieve the final test concentration range of 100 μM-0.05 μM.
Cell plates are incubated for 30 minutes at room temperature to allow equilibration of dye and test compound. Plates are then transferred to a fluorescence plate reader for fluorescence measurement using an excitation wavelength of 530 nm whilst measuring fluorescence emission at 565 nm. […] Membrane depolarisation is registered by an increase in fluorescence emission at 565 nm.
The change in fluorescence seen in each test well upon the addition of sodium containing buffer is calculated relative to the baseline fluorescence for that well. This figure is then used for calculating the IC50 for each test compound.
Consider `CC(NC1CN(C(=O)Nc2cccc(C(F)(F)F)c2)C1)c1ccccc1Cl` (stereo not shown) [Example 74, 3-[1-(2-Chloro-phenyl)-ethylamino]-azetidine-1-carboxylic acid (3-trifluoromethyl-phenyl)-amide], for which the IC50 turned out to be 2.86 µM.
The value for `O=C(Cc1ccc(Oc2ccccc2)cc1)N1CC(NC2Cc3ccccc3C2)C1` [Example 45, 1-[3-(Indan-2-ylamino)-azetidin-1-yl]-2-(4-phenoxy-phenyl)-ethanone] was 0.65 µM.
With `CC1(NC2CCc3cc(F)ccc32)CN(C(=O)Nc2ccc(Oc3ccc(F)cc3)cc2)C1` (stereo not shown) [Example 41, 3-(5-Fluoro-indan-1-ylamino)-3-methyl-azetidine-1-carboxylic acid [4-(4-fluoro-phenoxy)-phenyl]-amide] the figure was 0.56 µM; with `O=C(Nc1ccc(C(F)(F)F)cc1)N1CC(NC2CCc3ccccc3C2)C1` (stereo not shown) [Example 32, 3-(1,2,3,4-Tetrahydro-naphthalen-2-ylamino)-azetidine-1-carboxylic acid (4-trifluoromethyl-phenyl)-amide], 0.45 µM.
The value for `CC(NC1CN(C(=O)Nc2ccc(OC(F)(F)F)cc2)C1)c1ccc(F)cc1` (stereo not shown) [Example 72, 3-[1-(4-Fluoro-phenyl)-ethylamino]-azetidine-1-carboxylic acid (4-trifluoromethoxy-phenyl)-amide] was 3.21 µM.
As for `Cc1cc(F)ccc1C(C)NC1CN(C(=O)Nc2cccc(C(F)(F)F)c2)C1` (stereo not shown) [Example 113, 3-[1-(4-Fluoro-2-methyl-phenyl)-ethylamino]-azetidine-1-carboxylic acid (3-trifluoromethyl-phenyl)-amide], the IC50 came to 2.84 µM.
The value for `CCCCOc1cccc(NC(=O)N2CC(NC(C)c3ccccc3C)C2)c1` (stereo not shown) [Example 68, 3-(1-o-Tolyl-ethylamino)-azetidine-1-carboxylic acid (3-butoxy-phenyl)-amide] was 0.83 µM; that for `CN(C1CN(C(=O)Nc2ccc(Oc3ccccc3)cc2)C1)C1CCc2cc(F)ccc21` (stereo not shown) [Example 38, 3-[(5-Fluoro-indan-1-yl)-methyl-amino]-azetidine-1-carboxylic acid (4-phenoxy-phenyl)-amide] was 0.56 µM.
For `CN(C1CN(C(=O)Nc2ccc(C(F)(F)F)cc2)C1)C1CCc2cc(F)ccc21` (stereo not shown) [Example 39, 3[(5-Fluoro-indan-1-yl)-methyl-amino]-azetidine-1-carboxylic acid (4-trifluoromethyl-phenyl)-amide], the IC50 is 2.02 µM.
With `O=C(Nc1ccc(Oc2ccc(F)cc2)c(F)c1)N1CC(NC2CCc3cc(Cl)ccc32)C1` (stereo not shown) [Example 15, 3-(5-Chloro-indan-1-ylamino)-azetidine-1-carboxylic acid [3-fluoro-4-(4-fluoro-phenoxy)-phenyl]-amide] the figure was 0.65 µM; with `CC(NC1CN(C(=O)Nc2cccc(Oc3ccccc3)c2)C1)c1ccccc1Cl` (stereo not shown) [Example 102, 3-[1-(2-Chloro-phenyl)-ethylamino]-azetidine-1-carboxylic acid (3-phenoxy-phenyl)-amide], 0.8 µM.
With `CC(c1ccc(F)cc1)N(C)C1CN(C(=O)Nc2cccc(C(F)(F)F)c2)C1` (stereo not shown) [Example 95, 3-{[1-(4-Fluoro-phenyl)-ethyl]-methyl-amino}-azetidine-1-carboxylic acid (3-trifluoromethyl-phenyl)-amide] the figure was 4.55 µM.
The value for `Cc1ccccc1C(C)N(C)C1CN(C(=O)Nc2ccc(C(F)(F)F)cc2)C1` (stereo not shown) [Example 110, 3-[Methyl-(1-o-tolyl-ethyl)-amino]-azetidine-1-carboxylic acid (4-trifluoromethyl-phenyl)-amide] was 2.24 µM.
As for `COc1ccc2c(c1)CCC2NC1CN(C(=O)Nc2ccc(Oc3cccc(F)c3)cc2)C1` (stereo not shown) [Example 134, 3-(5-Methoxy-indan-1-ylamino)-azetidine-1-carboxylic acid [4-(3-fluoro-phenoxy)-pheny]-amide], the IC50 stood at 0.17 µM.
With `Cc1ccccc1C(C)NC1CN(C(=O)Nc2cccc(Oc3ccccc3)c2)C1` (stereo not shown) [Example 106, 3-(1-o-Tolyl-ethylamino)-azetidine-1-carboxylic acid (3-phenoxy-phenyl)-amide] the figure was 0.56 µM; with `Cc1ccccc1C(C)N(C)C1CN(C(=O)Nc2cccc(C(F)(F)F)c2)C1` (stereo not shown) [Example 96, 3-[Methyl-(1-o-tolyl-ethyl)-amino]-azetidine-1-carboxylic acid (3-trifluoromethyl-phenyl)-amide], 3.02 µM.
The value for `CC(c1ccc(F)cc1)N(C)C1CN(C(=O)Nc2cccc(C(F)(F)F)c2F)C1` (stereo not shown) [Example 84, 3-{[1-(4-Fluoro-phenyl)-ethyl]-methyl-amino}-azetidine-1-carboxylic acid (2-fluoro-3-trifluoromethyl-phenyl)-amide] was 5.8 µM.
With `CC1(NC2CCc3ccccc3C2)CN(C(=O)Nc2ccc(C(F)(F)F)cc2)C1` (stereo not shown) [Example 42, 3-Methyl-3-(1,2,3,4-tetrahydro-naphthalen-2-ylamino)-azetidine-1-carboxylic acid (4-trifluoromethyl-phenyl)-amide] the figure was 0.69 µM; with `O=C(Nc1ccc(Oc2ccc(F)cc2)c(F)c1)N1CC(NC2CCc3cc(Br)ccc32)C1` (stereo not shown) [Example 16, 3-(5-Bromo-indan-1-ylamino)-azetidine-1-carboxylic acid [3-fluoro-4-(4-fluoro-phenoxy)-phenyl]-amide], 1.72 µM.
With `O=C(Nc1ccc(Oc2ccc(F)cc2)cc1)N1CC(NCc2c(F)cccc2F)C1` [Example 129, 3-(2,6-Difluoro-benzylamino)-azetidine-1-carboxylic acid [4-(4-fluoro-phenoxy)-phenyl]-amide], the IC50 came to 1.49 µM.
Take `O=C(Cc1ccc(Oc2ccc(F)cc2)cc1)N1CC(NC2Cc3ccccc3C2)C1` [Example 49, 2-[4-(4-Fluoro-phenoxy)-phenyl]-1-[3-(indan-2-ylamino)-azetidin-1-yl]-ethanone]: the IC50 was determined as 0.43 µM.
The value for `CN(C1CN(C(=O)Nc2cccc(C(F)(F)F)c2)C1)C1CCc2cc(F)ccc21` (stereo not shown) [Example 40, 3[(5-Fluoro-indan-1-yl)-methyl-amino]-azetidine-1-carboxylic acid (3-trifluoromethyl-phenyl)-amide] was 2.3 µM; that for `Cc1ccccc1C(C)N(C)C1CN(C(=O)Nc2cccc(Oc3ccccc3)c2)C1` (stereo not shown) [Example 107, 3-[Methyl-(1-o-tolyl-ethyl)-amino]-azetidine-1-carboxylic acid (3-phenoxy-phenyl)-amide] was 0.51 µM.
With `NC(=O)C(NC1CN(C(=O)Nc2ccc(Oc3ccccc3)cc2)C1)c1ccccc1` (stereo not shown) [Example 55, 3-[(Carbamoyl-phenyl-methyl)-amino]-azetidine-1-carboxylic acid (4-phenoxy-phenyl)-amide] the figure was 7.71 µM; with `CC1Cc2ccccc2C1NC1CN(C(=O)Nc2ccc(Oc3ccccc3)cc2)C1` (stereo not shown) [Example 25, 3-(2-Methyl-indan-1-ylamino)-azetidine-1-carboxylic acid (4-phenoxy-phenyl)-amide], 0.84 µM.
Regarding `O=C(Nc1ccc(Oc2ccc(F)cc2)cc1)N1CC(NC2CCc3cc(F)ccc3C2)C1` (stereo not shown) [Example 8, 3-(6-Fluoro-1,2,3,4-tetrahydro-naphthalen-2-ylamino)-azetidine-1-carboxylic acid [4-(4-fluoro-phenoxy)-phenyl]-amide], the IC50 was determined as 0.31 µM.
Regarding `CC(NC1CN(C(=O)Nc2ccc(C(F)(F)F)cc2)C1)c1ccc(C#N)cc1` (stereo not shown) [Example 126, 3-[1-(4-Cyano-phenyl)-ethylamino]-azetidine-1-carboxylic acid (4-trifluoromethyl-phenyl)-amide], the IC50 amounted to 23.7 µM.
The value for `O=C(Nc1ccc(Oc2ccc(F)cc2)cc1)N1CC(NC2CCc3cc(Br)ccc32)C1` (stereo not shown) [Example 17, 3-(5-Bromo-indan-1-ylamino)-azetidine-1-carboxylic acid [4-(4-fluoro-phenoxy)-phenyl]-amide] was 0.54 µM; that for `CCCCOc1ccc(NC(=O)N2CC(N(C)C(C)c3ccc(F)cc3)C2)cc1` (stereo not shown) [Example 86, 3-{[1-(4-Fluoro-phenyl)-ethyl]-methyl-amino}-azetidine-1-carboxylic acid (4-butoxy-phenyl)-amide] was 3.53 µM; that for `O=C(Nc1ccc(Oc2ccc(F)cc2)c(F)c1)N1CC(NC2CCc3cc(F)ccc32)C1` (stereo not shown) [Example 11, 3-(5-Fluoro-indan-1-ylamino)-azetidine-1-carboxylic acid [3-fluoro-4-(4-fluoro-phenoxy)-phenyl]-amide] was 0.46 µM.
The value for `O=C(Nc1ccc(C(F)(F)F)cc1)N1CC(NC2CCc3cc(F)ccc3C2)C1` (stereo not shown) [Example 35, 3-(6-Fluoro-1,2,3,4-tetrahydro-naphthalen-2-ylamino)-azetidine-1-carboxylic acid (4-trifluoromethyl-phenyl)-amide] was 1.31 µM.
